One data set has as its target Cathepsin S (Homo sapiens, UniProt P25774). Briefly: Inhibition of 10 µM Cbz-Val-Val-Arg-AMC binding to human cathepsin S in fluorescence assay with 100 mM NaOAc.
Data set [1] in a line: The equilibrium solubility exhibited in a fasted state-simulated intestinal fluid at pH 6.8. It is filed as ADME. The conditions noted are these: human.
A further data set addresses Procathepsin L (Homo sapiens, UniProt P07711). Nature of the data set: Inhibition of 5 µM Cbz-Phe-Arg-AMC bindign to human cathepsin L activity in fluorescence assay with 100 mM NaOAc.
Data set [2] in a line: Oral bioavailability (i.v. administration). The class given is ADME, organism-based. The following applies: rat, in vivo.
The nature of data set [3]: Terminal half-life dosed as a solution in male Han Wistar rat administered i.v. The class given is ADME, organism-based. The following applies: in vivo, iv; for half-life: male, Han Wistar.
The target of another data set is Cathepsin B (Homo sapiens, UniProt P07858). Nature of the data set: Inhibition of 10 µM Cbz-Phe-Arg-AMC binding to human cathepsin B activity in fluorescence assay with 100 mM NaOAc.
Data set [4] in a line: The total clearance after i.v. administration. The class given is ADME, organism-based. The following applies: rat, in vivo, iv.
The nature of data set [5]: Steady-state volume of distribution of compound was determined after i.v. administration. The following applies: rat, in vivo, iv; for Vd: read-out: VSS. It is filed as ADME, organism-based.
In the next data set the target is T1, Cathepsin L2 (Homo sapiens, UniProt O60911).
T1 sequence (O60911 whole entry): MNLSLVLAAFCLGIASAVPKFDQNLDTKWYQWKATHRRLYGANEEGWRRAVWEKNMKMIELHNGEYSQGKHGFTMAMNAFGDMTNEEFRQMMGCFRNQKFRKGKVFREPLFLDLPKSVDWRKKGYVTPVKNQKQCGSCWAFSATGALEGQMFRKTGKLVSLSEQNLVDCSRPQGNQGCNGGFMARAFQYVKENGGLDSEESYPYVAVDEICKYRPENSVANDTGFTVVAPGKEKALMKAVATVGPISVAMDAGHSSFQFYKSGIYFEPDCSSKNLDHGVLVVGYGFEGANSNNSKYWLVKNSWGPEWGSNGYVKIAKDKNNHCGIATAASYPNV
Nature of the data set: Inhibition of 2 µM Cbz-Phe-Arg-AMC binding to human cathepsin V activity in fluorescence assay with 100 mM NaOAc.

A further data set addresses T2, Cathepsin K (Homo sapiens, UniProt P43235).
T2 sequence (P43235 whole entry): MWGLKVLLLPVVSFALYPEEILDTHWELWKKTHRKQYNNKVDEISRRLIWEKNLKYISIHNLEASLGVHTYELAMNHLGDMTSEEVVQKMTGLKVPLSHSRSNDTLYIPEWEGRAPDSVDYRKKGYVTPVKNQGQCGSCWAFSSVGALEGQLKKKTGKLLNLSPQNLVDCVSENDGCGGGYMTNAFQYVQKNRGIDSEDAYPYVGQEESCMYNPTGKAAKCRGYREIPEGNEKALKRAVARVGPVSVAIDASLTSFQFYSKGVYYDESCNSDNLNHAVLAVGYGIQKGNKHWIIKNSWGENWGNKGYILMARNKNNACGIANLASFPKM
Nature of the data set: Inhibition of 10 µM Cbz-Phe-Arg-AMC binding to human cathepsin K in fluorescence assay with 100 mM NaOAc.

Values after ≈ are worked out from the molar mass of the structure shown.

Cathepsin S, sequence (P25774 whole entry): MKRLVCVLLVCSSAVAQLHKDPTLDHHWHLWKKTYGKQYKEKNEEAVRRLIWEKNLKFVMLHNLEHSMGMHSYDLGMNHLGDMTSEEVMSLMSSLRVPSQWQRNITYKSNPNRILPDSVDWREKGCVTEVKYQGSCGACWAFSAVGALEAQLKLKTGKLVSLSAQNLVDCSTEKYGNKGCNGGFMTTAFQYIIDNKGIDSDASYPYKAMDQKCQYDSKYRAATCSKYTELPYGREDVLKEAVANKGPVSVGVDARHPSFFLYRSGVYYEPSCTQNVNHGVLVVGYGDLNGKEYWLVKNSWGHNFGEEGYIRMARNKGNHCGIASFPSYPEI
Procathepsin L, sequence (P07711 whole entry): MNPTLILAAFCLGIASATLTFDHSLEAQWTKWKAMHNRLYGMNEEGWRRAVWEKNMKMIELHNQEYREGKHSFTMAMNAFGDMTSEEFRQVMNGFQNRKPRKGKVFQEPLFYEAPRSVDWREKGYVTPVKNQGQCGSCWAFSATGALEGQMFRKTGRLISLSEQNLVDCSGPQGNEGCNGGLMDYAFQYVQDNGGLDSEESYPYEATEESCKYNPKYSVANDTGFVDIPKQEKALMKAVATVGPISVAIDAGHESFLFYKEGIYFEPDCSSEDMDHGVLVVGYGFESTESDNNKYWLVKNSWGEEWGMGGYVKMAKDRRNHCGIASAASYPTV

As for `CCCC[C@H](NC(=O)O[C@H](CN1CCN(c2ccc(C(F)(F)F)cc2)C1=O)C(C)(C)C)C(=O)C(=O)Nc1ccn[nH]1`, the 50% inhibitory concentration (IC50) stood at 0.54 µM at Cathepsin S, 37 µM on Procathepsin L, 60 µM on Cathepsin B and 1.7 µM at Cathepsin L2. Also, in [1] (read-out: FS-SIF), the solubility thermodynamic was 43 µg/mL (≈ 74.1 µM). The same molecule returned a bioavailability in data set [2] of 27%. The half-life in data set [3] is 5.67 h. The same molecule yielded a clearance in data set [4] of 55 mL/min/kg. Moreover, the Vd in data set [5] turned out to be 5 L/kg.

On to `CCCC[C@H](NC(=O)O[C@H](Cn1ccc(-c2ccc(C(F)(F)F)cc2)n1)C(C)(C)C)C(=O)C(=O)Nc1ccccn1`, for which the IC50 at Cathepsin S was 3.7 µM; at Cathepsin K, 0.0081 µM; against Procathepsin L it was 240 µM; at Cathepsin B, 107 µM; on Cathepsin L2 it was 4.5 µM. The solubility thermodynamic in [1] (read-out: FS-SIF) was 380 µg/mL (≈ 662 µM). The bioavailability in [2] is 34%. The molecule further showed a half-life in data set [3] of 3.5 h. Besides, the clearance in data set [4] is 41 mL/min/kg. The Vd in [5] was 1.8 L/kg.

For the molecule `CCCC[C@H](NC(=O)O[C@H](Cn1ccc(-c2ccc(C(F)(F)F)cc2)n1)C(C)(C)C)C(=O)C(=O)NCc1ccno1`, the IC50 at Cathepsin S was found to be 19 µM; at Cathepsin K, 0.0058 µM; against Procathepsin L, 1000 µM; at Cathepsin B, 870 µM; at Cathepsin L2 it was 36 µM. The solubility thermodynamic in [1] is 180 µg/mL (≈ 312 µM). This molecule came in with a bioavailability in data set [2] of 40%. Moreover, the half-life in data set [3] worked out at 6.67 h. Further, in data set [4], the clearance was determined as 3.2 mL/min/kg. Moreover, the Vd in data set [5] stood at 1.7 L/kg.

With `CCCC[C@H](NC(=O)O[C@H](Cc1nnc(-c2ccc(F)cc2)o1)C(C)(C)C)C(=O)C(=O)NCc1cccnc1`, the IC50 at Cathepsin S amounted to 2.7 µM; against Procathepsin L, 130 µM; at Cathepsin B it was 18 µM; on Cathepsin L2, 14 µM. Also, the solubility thermodynamic in data set [1] (read-out: FS-SIF) is 490 µg/mL (≈ 908 µM). The same molecule registered a bioavailability in data set [2] of 46%. This molecule returned a half-life in data set [3] of 3.83 h. The clearance in data set [4] came out at 11 mL/min/kg. The Vd in [5] is 1.4 L/kg.

As to `CCCC[C@H](NC(=O)O[C@H](Cc1nnc(-c2ccccc2)o1)C(C)C)C(=O)C(=O)N[C@H](C)c1ccccc1`, the half-maximal inhibitory concentration (IC50) at Cathepsin S was 3.7 µM; on Cathepsin K, 0.00083 µM; against Procathepsin L it was 17 µM; at Cathepsin B it was 31 µM; on Cathepsin L2, 5.6 µM.

With `CCCC[C@H](NC(=O)O[C@H](Cc1nnc(-c2ccc(C(F)(F)F)cc2)o1)C(C)(C)C)C(=O)C(=O)NN1CCOC1=O`, the half-inhibitory concentration (IC50) at Cathepsin S is 1.2 µM; on Procathepsin L, 160 µM; at Cathepsin B it was 5.2 µM; on Cathepsin L2, 7.1 µM. In [1] (read-out: FS-SIF), the solubility thermodynamic is 170 µg/mL (≈ 291 µM). In [2], this molecule returned a bioavailability of 79%. The molecule also came in with a half-life in data set [3] of 6.83 h. The molecule further showed a clearance in data set [4] of 11 mL/min/kg. Moreover, in data set [5], the Vd amounted to 3.1 L/kg.

On to `CCCC[C@H](NC(=O)O[C@H](Cc1nnc(-c2ccc(C(F)(F)F)cc2)o1)C(C)(C)C)C(=O)C(=O)Nc1ccn[nH]1`, for which the IC50 at Cathepsin S was 0.52 µM; on Procathepsin L it was 69 µM; on Cathepsin B it was 45 µM; on Cathepsin L2 it was 1.2 µM. The solubility thermodynamic in data set [1] (read-out: FS-SIF) was 61 µg/mL (≈ 108 µM). Moreover, the bioavailability in [2] was determined as 50%. For the same molecule, in data set [3], the half-life stood at 8.83 h. In data set [4], the clearance stood at 11 mL/min/kg. Also, in [5], the Vd came to 1.9 L/kg.

Take `CCCC[C@H](NC(=O)O[C@H](Cc1nnc(-c2ccccc2)o1)C(C)(C)CC)C(=O)C(=O)N[C@H](C)c1ccccc1`: the IC50 at Cathepsin S turned out to be 0.72 µM; at Cathepsin K it was 0.0015 µM; at Procathepsin L, 17 µM; at Cathepsin B, 56 µM; on Cathepsin L2 it was 2.8 µM.

With `CCCC[C@H](NC(=O)O[C@H](Cn1cnc(-c2ccc(C(F)(F)F)cc2)c1)C(C)(C)C)C(=O)C(=O)Nc1ccn[nH]1`, the IC50 on Cathepsin S came to 0.16 µM; against Procathepsin L, 10 µM; on Cathepsin B, 27 µM; on Cathepsin L2 it was 0.13 µM. Besides, in data set [1] (read-out: FS-SIF), the solubility thermodynamic was 130 µg/mL (≈ 231 µM). The molecule further yielded a bioavailability in [2] of 55%. In data set [3], this molecule displayed a half-life of 7.67 h. Besides, the clearance in data set [4] amounted to 15 mL/min/kg. Besides, the Vd in data set [5] is 2.4 L/kg.

On to `CCCC[C@H](NC(=O)O[C@H](Cn1cc(-c2ccc(C(F)(F)F)cc2)cn1)C(C)(C)C)C(=O)C(=O)Nc1ccn[nH]1`, for which the concentration for half-maximal inhibition (IC50) is 0.078 µM at Cathepsin S; 0.032 µM on Cathepsin K; 36 µM against Procathepsin L; 10 µM on Cathepsin B; 0.43 µM on Cathepsin L2. The solubility thermodynamic in [1] (read-out: FS-SIF) was 97 µg/mL (≈ 172 µM). Besides, in data set [2], the bioavailability was found to be 45%. The half-life in [3] came to 5.67 h. Also, in [4], the clearance came out at 9.1 mL/min/kg. Also, the Vd in [5] came to 2.1 L/kg.

Regarding `CCCC[C@H](NC(=O)O[C@H](Cc1nnc(-c2ccccc2)o1)C(C)(C)C)C(=O)C(=O)N[C@H](C)c1ccccc1`, the IC50 came out at 0.75 µM on Cathepsin S, 10 µM against Procathepsin L, 12 µM on Cathepsin B and 1.6 µM on Cathepsin L2.

Turning to `CCCC[C@H](NC(=O)O[C@H](Cc1nnc(-c2ccc(F)cc2)o1)C(C)(C)C)C(=O)C(=O)Nc1ccn[nH]1`, the half-inhibitory concentration (IC50) was found to be 110 µM on Cathepsin S; 0.0049 µM at Cathepsin K; 3800 µM against Procathepsin L; 3500 µM at Cathepsin B; 230 µM at Cathepsin L2. The solubility thermodynamic in [1] (read-out: FS-SIF) was 58 µg/mL (≈ 113 µM). This molecule displayed a bioavailability in [2] of 88%. The molecule further gave a half-life in [3] of 2.5 h. This molecule came in with a clearance in [4] of 33 mL/min/kg. In addition, in data set [5], the Vd was 3.6 L/kg.

Consider `CCCC[C@H](NC(=O)O[C@H](Cn1cnc(-c2ccc(C(F)(F)F)cc2)c1)C(C)(C)C)C(=O)C(=O)Nc1nccs1`, for which the IC50 came to 19 µM at Cathepsin S, 1000 µM on Procathepsin L, 870 µM at Cathepsin B and 36 µM on Cathepsin L2. The solubility thermodynamic in data set [1] (read-out: FS-SIF) was 48 µg/mL (≈ 82.8 µM). Also, the bioavailability in [2] was 43%. The same molecule had a half-life in data set [3] of 4.67 h. Also, in data set [4], the clearance stood at 15 mL/min/kg. Further, in [5], the Vd came out at 1.8 L/kg.

As to `CCCC[C@H](NC(=O)O[C@H](Cc1nnc(-c2ccc(C(F)(F)F)cc2)o1)C(C)(C)C)C(=O)C(=O)N[C@H](C)c1ccccc1`, the 50% inhibitory concentration (IC50) at Cathepsin S was 1.6 µM; on Procathepsin L it was 190 µM; on Cathepsin B, 32 µM; at Cathepsin L2, 5 µM.

Consider `CCCC[C@H](NC(=O)O[C@H](Cc1nnc(-c2ccc(F)cc2)o1)C(C)(C)C)C(=O)C(=O)N[C@H](C)c1ccccc1`, for which the IC50 at Cathepsin S amounted to 0.53 µM; on Procathepsin L, 33 µM; on Cathepsin B, 9.8 µM; at Cathepsin L2, 34 µM.

In the case of `CCCC[C@H](NC(=O)O[C@H](Cn1ccc(-c2ccc(C(F)(F)F)cc2)n1)C(C)(C)C)C(=O)C(=O)Nc1ccn[nH]1`, the half-maximal inhibitory concentration (IC50) at Cathepsin S was found to be 0.21 µM; on Cathepsin K, 0.072 µM; against Procathepsin L, 8.7 µM; on Cathepsin B, 20 µM; at Cathepsin L2 it was 0.17 µM. Besides, in data set [1] (read-out: FS-SIF), the solubility thermodynamic is 110 µg/mL (≈ 196 µM). The molecule also registered a bioavailability in [2] of 9.6%. In data set [3], this molecule registered a T1/2 of 1.52 h. For the same molecule, the CL in data set [4] was 0.11 mL/min/kg. The molecule further showed a VSS in data set [5] of 0.32 L/kg.

Regarding `CCCC[C@H](NC(=O)OC(Cc1nnc(-c2ccc(F)cc2)o1)C(C)(C)C)C(=O)C(=O)N[C@H]1CCCNC1=O` (stereo partly specified), the concentration for half-maximal inhibition (IC50) at Cathepsin S came to 0.81 µM; on Cathepsin K, 0.00065 µM; on Procathepsin L, 15 µM; at Cathepsin B, 6.2 µM; on Cathepsin L2 it was 1.3 µM. Also, the solubility thermodynamic in data set [1] (read-out: FS-SIF) was 620 µg/mL (≈ 1140 µM). The molecule also came in with a bioavailability in [2] of 17%. The molecule also gave a half-life in [3] of 2.33 h. This molecule showed a clearance in [4] of 35 mL/min/kg. In data set [5], the Vd came to 1.4 L/kg.

(Values after ChEMBL document CHEMBL1142749, “P2-P3 conformationally constrained ketoamide-based inhibitors of cathepsin K” (Bioorg Med Chem Lett, 2005).)
